Results reported in patent US11465998B2, “Therapeutic compounds and methods of use thereof” (Regents of the University of Minnesota, priority 2019, dated 2022).
“Also recorded” adds a separate entry of the source.

Legend:
[1] = system: human peripheral blood mononuclear cells (PBMCs); assay: Multiplexed immunoassays for human cytokines in PBMCs; assay type: cell-based
Method: Example 5: High-throughput screens in porcine blood: Curated compound collections were obtained from the Institute for Therapeutics Discovery & Development at the University of Minnesota. Compound transfers from source (80 nL of 10 mM stocks) to assay plates were performed using an Echo 550 acoustic liquid handler (Labcyte, Sunnyvale, Calif.). For most libraries, a target final concentration of 10 μM of compound (in a final volume of 80 μL for the assay described below) was achieved. Compound plates were hermetically sealed and stored at −80° C. until used. Fresh, heparin-anticoagulated porcine blood from healthy animals were obtained under USDA supervision from Midwest Research Swine, LLC (Glencoe, Minn.). 80 μL of hematocrit-enriched porcine blood (low-speed centrifugation, followed by resuspension in DMEM supplemented with 10% fetal bovine serum) was added to compound plates and incubated for 15 h. The following day, the plates were briefly centrifuged (100 g, 10 min), and supernatants were transferred using an automated ViaFlow 384 transfer device (Integra Biosciences Corp., Hudson, N.H.) to assay plates containing of 10^6 cells/mL of each of the following NF-κB/secreted alkaline phosphatase reporter cells suspended in HEK-Blue Detection Media: human IFN-α/β, human IFN-γ, human TNF-α/IL-1β (InvivoGen, San Diego, Calif.). NF-κB translocation was assayed spectrophotometrically using an alkaline phosphatase-specific chromogen (present in HEK-detection medium as supplied by InvivoGen) at 620 nm using a SpectraMax M4 multimode microplate reader (Molecular Devices, Sunnyvale, Calif.). Z′ factors were computed for each TLR/NOD-specific signals. Hits were defined as signals >4σ (in-plate standard deviations for test compounds above negative control means), were deconvoluted in full dose-response assays in human TLR-2/-3/-4/-5/-7/-8/-9 and NOD-1/NOD-2-specific reporter cells in liquid handler-assisted assay formats as described previously. Example 6: Murine knockout cell-lines: The following reagents were obtained through BEI Resources, NIAID, NIH: the microglial cell line derived from MAL/MyD88 double knockout Mice (NR-9904), and the macrophage cell line derived from TRIF/TRAM knockout mice (NR-9568). Example 7: Human NOD1/2-specific reporter gene assays (NF-κB induction), and TLR-2/-3/-4/-5/-7/-8/-9/STING/ISG counter-screens: The induction of NF-κB was quantified using human TLR-2/-3/-4/-5/-7/-8/-9/NOD-1/NOD-2/STING/ISG-specific, rapid-throughput, liquid handler-assisted reporter gene assays as previously described by us (Wu, W. et al. J. Med. Chem. 2010, 53, 3198-3213; Shukla, N. M. et al. J. Med. Chem. 2010, 53, 4450-4465; Agnihotri, G. et al. J. Med. Chem. 2011, 54, 1490-1510 and Ukani, R. et al. Bioorg. Med. Chem. Lett. 2012, 22, 293-295). […]

human whole blood = assay: Cytokine/chemokine induction in human whole blood; assay type: cell-based
[2] = system: THP-1 NF-κB reporter cells; assay: NF-κB translocation in THP-1 NF-κB reporter cells, alone or with TLR stimuli; assay type: cell-based, human; settings: for enhancement of NF-κB translocation response to TLR2 stimuli: concurrent exposure to compound and TLR2 agonist; for enhancement of NF-κB translocation response to TLR2 stimuli / enhancement of NF-κB translocation response to TLR4 stimuli / enhancement of NF-κB translocation response to TLR5 stimuli: data not shown; for enhancement of NF-κB translocation response to TLR4 stimuli: concurrent exposure to compound and TLR4 agonist; for enhancement of NF-κB translocation response to TLR5 stimuli: concurrent exposure to compound and TLR5 agonist; for enhancement of NF-κB translocation response to TLR7 stimuli: concurrent exposure to graded concentrations of compound and TLR7 agonist; for enhancement of NF-κB translocation response to TLR8 stimuli: concurrent exposure to graded concentrations of compound and TLR8 agonist
From the text: Given that Rip2 activity is proximal to several of the components that constitute the multiprotein signaling complexes involved in innate immune signaling, and Rip2 participates in signaling through some, but not all, TLRs, it was of particular interest to examine if the benzimidazole-thiophene-2-carboxamide formula I compounds could synergize with other innate immune stimuli. […] THP-1 NF-κB reporter cells were concurrently exposed to graded concentrations of either 7e or 7f, and a variety of innate immune stimuli, including TLR-2, -3, -4, -5, -7, -8, and -9 agonists. An enhancement in NF-κB translocation was observed.

Compound	induction of chemokines and cytokines [1]	induction of cytokines and chemokines (human whole blood)	enhancement of NF-κB translocation response to TLR2 stimuli [2]	enhancement of NF-κB translocation response to TLR4 stimuli [2]	enhancement of NF-κB translocation response to TLR5 stimuli [2]	enhancement of NF-κB translocation response to TLR7 stimuli [2]	enhancement of NF-κB translocation response to TLR8 stimuli [2]
CCCCCCc1nc2ccccc2n1-c1csc(C(N)=O)c1 [Compound 7f, 4-(2-Hexyl-1H-benzo[d]imidazol-1-yl)thiophene-2-carboxamide]	None of the small molecules (including 1, as well as the optimized, equipotent analogues 7e and 7f) showed any activity; also recorded: essentially identical to that of 7e	None of the small molecules (including 1, as well as the optimized, equipotent analogues 7e and 7f) showed any activity	absent	absent	evident	particularly pronounced	particularly pronounced
CCCCCc1nc2ccccc2n1-c1csc(C(N)=O)c1 [Compound 7e, 4-(2-Pentyl-1H-benzo[d]imidazol-1-yl)thiophene-2-carboxamide]	None of the small molecules (including 1, as well as the optimized, equipotent analogues 7e and 7f) showed any activity; also recorded: absence of induction of chemokines and cytokines	None of the small molecules (including 1, as well as the optimized, equipotent analogues 7e and 7f) showed any activity	absent	absent	evident	particularly pronounced; also recorded: enhancement of NF-κB translocation responses	particularly pronounced; also recorded: enhancement of NF-κB translocation responses; also recorded: distinctly biphasic
